The source of these data is US8906945B2 (priority 2009, dated 2014).

The structures appear in SMILES notation. “Also recorded” adds a separate entry of the source. Read-outs that look alike come from different tables or passages of the source.

One series in a line: in vitro. The settings on record: human.
Another series concerns HeLa cells. The settings on record: ratio of HeLa CC50 vs ExoS′-βLA IC50.
The next series deals with P. aeruginosa. Description: Minimum inhibitory concentration (broth microdilution). Conditions: Pseudomonas aeruginosa, read-out: MIC vs. P. aeruginosa. (Dilution methods test growth across graded concentrations, often in twofold steps.)
Series [1] has as its system P. aeruginosa T3SS (exoT-luxCDABE reporter strain MDM852). The series is classed as cell-based, Pseudomonas aeruginosa. The settings on record: for Serum Effect: % inhibition of exoT-lux RLU in the absence of serum/% inhibition in the presence of 10% fetal calf serum.
Series [2] deals with T3SS-mediated secretion of YopE-βLA fusion protein from Y. pestis strain JG153/pMM85. Description: microbe, parasite or virus in culture. The series is classed as cell-based. Conditions: Yersinia pestis.
In series [3] the test system is T3SS-mediated secretion of ExoS′-βLA fusion protein from P. aeruginosa strain MDM973. As to the kind of experiment: microbe, parasite or virus in culture. It counts as cell-based, Pseudomonas aeruginosa. Conditions: for IC50: Pseudomonas aeruginosa.
The subject of series [4] is ExoU translocation from P. aeruginosa strain PAKΔSTYexoU into CHO cells. Description: Inhibition of P. aeruginosa ExoU-dependent CHO cell killing (LDH release). Conditions: ExoU-secreting P. aeruginosa, MOI 5. (In general: LDH leaks from cells whose membrane has failed.)
In series [5] the test system is Chlamydia trachomatis L2 in Hep-2 cells. Description: Chlamydia trachomatis growth inhibition assay. It counts as cell-based. The procedure:
Inhibition of the growth of Chlamydia trachomatis L2 strain by compounds was measured in 24-well plates essentially according to the method of Wolf et al. (59). Confluent monolayer Hep-2 cells were infected with L2 at an MOI of 0.5 and treated with compounds at indicated concentrations for 48 h. Then cultures were collected and sonicated. Entire lysates were used for counting inclusion forming units (IFUs) as a measurement of production of Chlamydia progeny elementary bodies (EBs) by re-plating onto fresh HeLa monolayers. An uninhibited control (DMSO only) and a complete inhibition control (chloramphenicol, 200 μg/ml) were included. Experiments were done in triplicate.

Series [6] relates to HeLa cell internalization of P. aeruginosa. As to the kind of experiment: Gentamicin protection assay of bacterial internalization. Conditions: 50 μM, ExoT-producing P. aeruginosa, MOI 10.
[7] abbreviates: read-out: ExoS′-βLA IC50, Table 3, secretion from P. aeruginosa strain MDM973 reduced by 50%.
Setting [8] is: 50 μM added after 2.5 hours of T3SS induction.

With `CCN1CCOC(CC(=O)Nc2ccc3c(c2)OCCO3)C1=O` (centres unmarked) [Compound 3, N-(2,3-dihydrobenzo[b][1,4]dioxin-6-yl)-2-(4-ethyl-3-oxomorpholin-2-yl)acetamide], the CC50 was at least 100 µM in “in vitro” (CC50 (cytotoxicity, HeLa), absence of serum) and above 100 µM in “in vitro” (HeLa CC50). Besides, the CC50/IC50 in the series with HeLa cells is above 5.0. Also, the minimum inhibitory concentration (MIC) (in general, the least concentration at which growth counts as inhibited) with P. aeruginosa is above 100 µM. Besides, the “Serum Effect” value in [1] (both at 50 μM compound) turned out to be 4.8. The “RLU Selectivity” value in series [1] (% inhibition of exoT-lux RLU/% inhibition of lac-lux RLU, both at 50 μM compound) was determined as 4.1. Further, the IC50 – broadly, the concentration needed to halve the response being measured – was 16 µM in series [2] (read-out: yopE-βLA IC50), 20 µM in series [3] (setting [7]) and at most 25 µM in series [3] (read-out: IC50 in the ExoS′-βLA secretion assay). Further, the “rescue of CHO cells from ExoU cytotoxicity (in words)” value in [4] is “failed to inhibit T3SS-mediated translocation”.

For `CC(Oc1ccc(Cl)cc1Cl)C(=O)NCc1ccc2c(c1)OCO2` (racemic) [Compound 1, N-(benzo[d][1,3]dioxol-5-ylmethyl)-2-(2,4-dichlorophenoxy)propanamide], in [5] (50 μM, MOI 0.5, listed as MBX 1641), the “reduction of growth of C. trachomatis L2 in Hep-2 cells” value is “significantly reduced; also recorded: inhibits the growth”. Besides, the “concentration dependence of effect on C. trachomatis growth in Hep-2 cells” value in series [5] (FIG. 3D) is “concentration-dependent effect”. Besides, the minimum inhibitory concentration (MIC) in the series with P. aeruginosa is above 100 µM. Also, the “stimulation of internalization of bacterial cells by HeLa cells” value in series [6] is “over 11 fold”. Besides, the “Serum Effect” value in [1] (both at 50 μM compound) stood at 3.7. In series [1] (strain MDM852, RLU at 200 minutes), the “z-score in the high throughput screen” value is 10. Also, the IC50 was around 38 µM in series [2] (read-out: IC50 of YopE-βLA secretion from Y. pestis strain JG153); 22 µM in series [2] (read-out: yopE-βLA IC50); 12.5 µM in series [3] (setting [7]); 10 µM in series [3] (read-out: IC50 (μM) (ExoS′-βLA assay), Table 4). Moreover, the “time to 50% inhibition of ExoS′-βLA secretion” value in series [3] (setting [8]) was at most 15 min. Moreover, in series [3] (setting [8]), the “time to 100% inhibition of ExoS′-βLA secretion” value was at most 45 min. Also, in series [3] (unpublished observations), the “potency when administered during or after the 2.5 hour EGTA induction of T3SS” value was “equally potently”.
